In PubChem BioAssay (NCI):
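Cells were grown in 96-well plates and exposed to each compound for 48 hours at five concentrations; endpoints were interpolated linearly between bracketing concentrations, or set to the highest concentration if not reached. GI50 marks 50% less growth. TGI marks complete inhibition of growth.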

Legend:
Assay in all cases: NCI-60 cell line screen, 48 h
COLO 205 colon = tested on: COLO 205 colon
HOP-62 NSCLC = tested on: HOP-62 NSCLC
OVCAR-3 ovarian = tested on: OVCAR-3 ovarian
OVCAR-5 ovarian = tested on: OVCAR-5 ovarian
SF-268 CNS = tested on: SF-268 CNS
SK-MEL-28 melanoma = tested on: SK-MEL-28 melanoma
SK-MEL-5 melanoma = tested on: SK-MEL-5 melanoma
SW-620 colon = tested on: SW-620 colon
TK-10 renal = tested on: TK-10 renal
UO-31 renal = tested on: UO-31 renal

Row | Compound | TGI (COLO 205 colon) | TGI (HOP-62 NSCLC) | TGI (OVCAR-3 ovarian) | TGI (OVCAR-5 ovarian) | TGI (SF-268 CNS) | TGI (SK-MEL-28 melanoma) | TGI (SK-MEL-5 melanoma) | TGI (SW-620 colon) | TGI (TK-10 renal) | TGI (UO-31 renal) | GI50 (OVCAR-3 ovarian) | GI50 (OVCAR-5 ovarian) | GI50 (SK-MEL-28 melanoma) | GI50 (SK-MEL-5 melanoma) | GI50 (TK-10 renal) | GI50 (UO-31 renal) | GI50 (COLO 205 colon) | GI50 (HOP-62 NSCLC) | GI50 (SF-268 CNS) | GI50 (SW-620 colon)
1 | Nc1nc(Cl)cc(NCC2(O)CCCC2)n1 | > 100 µM | > 100 µM | > 100 µM | > 100 µM | > 100 µM | > 100 µM | > 100 µM | > 100 µM | > 100 µM | > 100 µM |  |  |  |  |  |  |  |  |  | 
2 | CC(C)(C)OC(=O)n1cc(C2CN(O)C(=O)C23CCC(=O)N3Cc2ccccc2)c2ccccc21 (stereo unspecified) | > 100 µM | > 100 µM | > 100 µM | > 100 µM | > 100 µM |  | > 100 µM | > 100 µM | > 100 µM | > 100 µM |  |  |  |  |  |  |  |  |  | 
3 | NS(=O)(=O)c1ccc(NNc2c3ccccc3nc3c(C(=O)Nc4ccc(S(=O)(=O)Nc5ncccn5)cc4)cccc23)cc1 | > 25 µM | > 25 µM | > 25 µM | > 25 µM | > 25 µM | > 25 µM | > 25 µM | > 25 µM | > 25 µM | > 25 µM |  |  |  |  |  |  |  |  |  | 
4 | CO[C@]1(CN2CCN3CCCC[C@@H]3C2)/C=C/C[C@H](C)[C@@H](C)S(=O)(=O)NC(=O)c2ccc3c(c2)N(C[C@@H]2CC[C@H]21)C[C@@]1(CCCc2cc(Cl)ccc21)CO3 |  |  | 3.03 µM | 3.8 µM |  | 3.44 µM | 3.11 µM |  | 6.39 µM | 2.93 µM | 1620 nM | 1.93 µM | 1.86 µM | 1710 nM | 2.33 µM | 1430 nM |  |  |  | 
5 | COc1ccc(CCN2CCc3c(C)c(C#N)c4nc5ccccc5n4c32)cc1OC | 89.8 µM | > 100 µM | > 100 µM | > 100 µM | > 100 µM | > 100 µM | 52 µM | 97.3 µM | > 100 µM | > 100 µM |  |  |  |  |  |  |  |  |  | 
6 | NC(=O)CO/N=C1/C(c2c(O)[nH]c3ccccc23)=Nc2ccccc21 | > 100 µM | > 100 µM | > 100 µM | > 100 µM | > 100 µM | > 100 µM | > 100 µM | > 100 µM | > 100 µM | > 100 µM |  |  |  |  |  |  |  |  |  | 
7 | CCOC(=O)c1cnccc1CC1(C#N)c2ccccc2C=CN1C(=O)c1ccccc1 (stereo unspecified) | > 100 µM | > 100 µM | > 100 µM | > 100 µM | 82 µM | > 100 µM | 37.8 µM | > 100 µM | > 100 µM | 91.1 µM |  |  |  |  |  |  |  |  |  | 
8 | CSc1nc(NC(C)C)c2c(n1)Sc1nc3ccccc3n1C2O (stereo unspecified) | 14.3 µM | > 100 µM | 5.88 µM |  | > 100 µM | > 100 µM |  | 65.3 µM | > 100 µM | 27.8 µM |  |  |  |  |  |  |  |  |  | 
9 | CCOC(=O)C1CCCCN1CCc1c[nH]c2ccccc12 (stereo unspecified) | > 100 µM | > 100 µM | > 100 µM | > 100 µM | > 100 µM | > 100 µM | > 100 µM | > 100 µM | > 100 µM | > 100 µM |  |  |  |  |  |  |  |  |  | 
10 | N#Cc1nc(C#N)n(C(=O)c2ccccc2)c1NC(=O)c1ccccc1 | > 100 µM | > 100 µM | > 100 µM | > 100 µM | > 100 µM | > 100 µM | > 100 µM | > 100 µM | > 100 µM | > 100 µM |  |  |  |  |  |  |  |  |  | 
11 | NC1=NCC(CN2CCCC2)O1 (stereo unspecified) | > 100 µM | > 100 µM | > 100 µM | > 100 µM | > 100 µM | > 100 µM | > 100 µM | > 100 µM | > 100 µM | > 100 µM |  |  |  |  |  |  |  |  |  | 
12 | Cc1ccc(S(=O)(=O)N(CC(O)COc2ccccc2)c2ccc(F)cc2F)cc1 (stereo unspecified) | 28.6 µM | 30.1 µM | 34.4 µM | 34.1 µM | 31.8 µM | 29.7 µM | 27.8 µM | 31.9 µM | 45.9 µM | 26.9 µM |  |  |  |  |  |  |  |  |  | 
13 | CC(=O)CC(=O)CCC(=O)O | > 100 µM |  |  | > 100 µM | > 100 µM | > 100 µM |  | > 100 µM | > 100 µM | > 100 µM |  |  |  |  |  |  |  |  |  | 
14 | CC(=O)O[C@H]1CC[C@@]2(C)[C@H](CC[C@@H]3[C@@H]2CC[C@]2(C)[C@@H](c4ccc(=O)oc4)C[C@H]4O[C@]342)C1 | 14.2 µM | 2.06 µM | 1.67 µM | 12.2 µM | 1.29 µM | 20.9 µM | 1.51 µM | 3.1 µM |  | 3.18 µM |  |  |  |  |  |  |  |  |  | 
15 | O=C(Nc1cccc(-n2cc(-c3ccncc3)c(-c3ccc(O)c(Cl)c3)n2)c1)c1cccc(C(F)(F)F)c1 | 72.9 µM | > 100 µM |  | > 100 µM | > 100 µM | > 100 µM | 16.2 µM | > 100 µM | > 100 µM | > 100 µM |  | 23.7 µM | 4.63 µM | 2380 nM | 7.18 µM | 4290 nM | 13 µM | 8.86 µM | 7.11 µM | 5.81 µM
16 | COc1c(C)c(C/C=C(\C)CC/C=C(\C)CCC=C(C)C)c(OC)c(OC)c1OC | > 100 µM | > 100 µM | > 100 µM | > 100 µM | > 100 µM |  | > 100 µM | > 100 µM | > 100 µM | > 100 µM |  |  |  |  |  |  |  |  |  | 
17 | Cc1cc2cc3c(cc2c(-c2ccc(N)cc2)n1)OCO3 | 88.5 µM | > 100 µM | 67.9 µM | > 100 µM | 79.3 µM |  | 71.9 µM | > 100 µM | > 100 µM | > 100 µM |  |  |  |  |  |  |  |  |  | 
18 | Cc1nc2ccc(Cl)cc2c2c1CCN2c1ccccc1 | 18.1 µM | 83.8 µM | 44.1 µM |  | 83.9 µM | 28.5 µM | 20.7 µM | 63.9 µM | 37.7 µM | 23.8 µM |  |  |  |  |  |  |  |  |  | 
19 | CCOC(=O)C1(C(F)(F)F)N=C(CC)OC(N2CCOCC2)=N1 (stereo unspecified) | > 100 µM |  | > 100 µM | > 100 µM | > 100 µM | > 100 µM | > 100 µM | > 100 µM | > 100 µM | > 100 µM |  |  |  |  |  |  |  |  |  | 
20 | C/C(Nc1ccc(Cl)cc1Cl)=C1/CCOC1=O | > 100 µM | 70.8 µM | > 100 µM |  | 92.8 µM | > 100 µM | > 100 µM | > 100 µM | > 100 µM | > 100 µM |  |  |  |  |  |  |  |  |  | 
21 | CCOC(=O)c1cn(C)c(=S)n2c1nc1ccccc12 | > 100 µM | > 100 µM | > 100 µM | > 100 µM |  | > 100 µM | > 100 µM | > 100 µM |  | > 100 µM |  |  |  |  |  |  |  |  |  | 
